Measured values: US20130190404A1, “CRYSTALS OF CARBOPROST TROMETHAMINE AND THE PREPARATION METHOD AS WELL AS THE USES THEREOF” (SHANGHAI TECHWELL BIOPHARMACEUTICAL CO., LTD., priority 2010, published 2013)

Assay: Purity and stability test: content of impurities by HPLC after sealed storage at 25° C. for 7 days
Format: physicochemical
Details: for Content of impurities after stored at 25° C. for 7 days: sealed storage; for Content of impurities after stored at 25° C. for 7 days / Initial content of impurities: HPLC; for Initial content of impurities: before storage (baseline of the stability test)
Protocol: In the following examples, high performance liquid chromatography (HPLC) method (European Pharmacopoeia) used for detecting the purity of the crystal of arboprost tromethamine obtained are listed as follows:
Stationary phase: silica gel, particle size 5-μm
Mobile phase: acetonitrile:aqueous Sodium Dihydrogen Phosphate (pH=2.5)=23:77 (V/V)
Column temperature: 35° C.
Detection wavelength: 200 nm
In the present example, the samples from the comparative-example and examples were test for purity and stability. The method for testing is described as follows:
The samples from comparative-example 1, example 2 and example 4 were obtained and kept at 25° C. for 7 days in sealed storage. And then the content of impurities in each sample was tested.

Content of impurities after stored at 25° C. for 7 days [%]	Initial content of impurities [%]	stability after storage (in words) (after stored for a long time, conclusion from the table)	Structure (SMILES)
0.3	0.3	–	CCCCC[C@](C)(O)/C=C/[C@@H]1[C@@H](C/C=C\CCCC(=O)O)[C@@H](O)C[C@H]1O [Example 2, carboprost tromethamine]
–	–	excellent stability	CCCCC[C@](C)(O)/C=C/[C@@H]1[C@@H](C/C=C\CCCC(=O)O)[C@@H](O)C[C@H]1O [crystal of carboprost tromethamine, 2-amino-2-(hydroxymethyl)propan-1,3-diol(5Z)-7-[(1R,2R,3R,5S)-3,5-dihydroxy-2-[(1E,3S)-3-hydroxy-3-methyl-1-octene]cyclopentyl]-5-heptylic acid]
4.0	0.5	–	CCCCC[C@](C)(O)/C=C/[C@@H]1[C@@H](C/C=C\CCCC(=O)O)[C@@H](O)C[C@H]1O [compound 1, carboprost tromethamine]
0.2	0.2	–	CCCCC[C@](C)(O)/C=C/[C@@H]1[C@@H](C/C=C\CCCC(=O)O)[C@@H](O)C[C@H]1O [Example 4, carboprost tromethamine]
